The record followed here is patent US11058700B2, “Macrocyclic lactones and uses thereof as modulators of purinergic receptors” (City of Hope, priority 2015, dated 2021).

Test [1] has as its system P2X4/P2X7/Pannexin-1 channels. Kind of test: Membrane permeabilization to YOPRO-1. The class given is cell-based, mouse. To be noted: 4T1.2 cells, 3 mM ATP and 32 μM Ivermectin. On the procedure: FIGS. 3A-3G. Dual roles of ATP and purinergic signaling in Ivermectin's killing. FIG. 3A: Depletion of extracellular ATP with Apyrase (2500 μunits/ml) exacerbates killing of 4T1.2 cell by Ivermectin. FIG. 3B: Extracellular Ca^2− and ATP contain Ivermectin-induced cell swelling. 4T1.2 cells were treated with 32 μM Ivermectin for 4 h in the presence of 1 mM EDTA or 2500 μunits/ml Apyrase. FIG. 3C: Ivermectin (0.5-32 μM) and high concentrations of extracellular ATP (0.3-3 mM) synergistically open pannexin-1 channels and permeabilize the membrane on live cells (7AAD-positive dead cells were gated out). 4T1.2 cells were treated for 30 min as indicated in the presence of 7 AAD and 5 μM YOPRO-1. FIG. 3D: Analysis of supernatants from Ivermectin-treated murine and human TNBC cells showing rapid release of ATP followed by its transient depletion. Depletion of extracellular ATP with Apyrase (2500 μunits/ml) was used as a positive control. FIG. 3E: Analysis of membrane-proximal ATP levels using cancer cells engineered to express a membrane-bound Luciferase. […] FIG. 3G: The P2X7-specific inhibitor KN-62 (1-10 μM) blocks Ivermectin cytotoxicity (IVM 8-32 μM, 4-48 h treatments). Asterisk (*) indicates p<0.05 relative to untreated or Ivermectin alone controls, respectively.
FIGS. 10A-10L. Extracellular Dual roles of ATP and purinergic signaling in Ivermectin's killing. 4T1.2 cells were treated with Ivermectin for 4 h in the presence of different inhibitors at μM concentrations as indicated. FIG. 10A: The non-specific P2 purinergic receptor inhibitor Suramin (4-400 μM) exacerbates Ivermectin-induced cell death. FIG. 10B: Inhibition of extracellular ATPases with PSB 069 protects against Ivermectin cytotoxicity. FIG. 10C: Blockade of pannexin-1 channels with Panx-1 mimetic blocking peptide (Anaspec) and Probenecid at μM concentrations as indicated exacerbates killing. […] FIG. 10E: ATP plays a transiently protective role only in the mouse but not human breast cancer cells. 4T1.2 and MDA-MB-231 cells were treated with 32 μM Ivermectin for 4 h in the presence of ATP at mM concentrations as indicated. FIG. 10F: qPCR showing up-regulation of P2X4 and P2X7 receptors on several murine cancer cell lines, including 4T1.2 and DD-Her2/neu (breast), and B16 (melanoma). […] Expression of P2X and P2Y purinergic receptors, NOX family members, GABA, and Glycine receptors was analyzed using publicly available breast cancer cell lines datasets. Statistically significant (p<0.05) up-regulation and down-regulation in breast cancer versus normal cells is shown in red and blue, respectively. FIG. 10H: Correlation between sensitivity to Ivermectin and ATP across various human cancer cell lines. Cancer cells were treated for 24 h with 3 mM ATP or Ivermectin at 16 and 32 μM doses as indicated. […]

Test [2] has as its system 4T1.2 cells. Kind of test: Cell viability (acid phosphatase assay) of cancer cells treated with Ivermectin. Type of test: cell-based, mouse. To be noted: for effect on Ivermectin-induced cell death: cells treated with Ivermectin (32 μM, 4 h in figure legends) in the presence of the agent. The method, then: Cell viability. Cancer cells were plated on 96 well flat-bottom plates and allowed to attach overnight. Cells were then pre-incubated with drugs for 1 h and treated with Ivermectin for 4 h. In the case of 24 h and 48 h incubations the cells, Ivermectin and drugs were plated together. All treatments and controls were done in triplicate wells and results were validated in at least two independent experiments. Following treatment the plates were washed once with PBS and cell viability was measured using the acid phosphatase assay. Briefly, cells were incubated for 1h at 37° C. in 100 μL assay buffer (0.16 M sodium acetate, 0.1% Triton-X-100, supplemented with 4-Nitrophenyl phosphate disodium salt hexahydrate, Sigma Aldrich, at 0.00263 g/ml). Reaction was stopped using 10 μL of 1N sodium hydroxide. Absorption at 405 nm was measured within 10 min using a multi-well plate reader. Mode of cell death and viability of cells in suspension was evaluated using flow cytometry. Briefly, cancer cells were pre-incubated with drugs for 30 min to 1 h, as indicated, treated with Ivermectin for 4 h in 5 ml FACS tubes , washed twice in PBS and stained with PE-conjugated Annexin V and 7AAD (1 μl per 100 μl/200,000 cancer cells) for 15 min.

Turning to `Clc1cccc(-c2nnnn2Cc2cccnc2)c1Cl` [A438079], in test [1], the “block of ATP+Ivermectin-induced membrane permeabilization to YOPRO-1” value (shortened to “block”) is listed as “suppressed permeabilization to YOPRO-1 in a dose-dependent fashion”. In addition, the “effect on Ivermectin-induced cell death” value in test [2] is “did not observe any protection”.
As for `CN([C@@H](Cc1ccc(OS(=O)(=O)c2cccc3cnccc23)cc1)C(=O)N1CCN(c2ccccc2)CC1)S(=O)(=O)c1cccc2cnccc12` [KN-62], the “block” value in test [1] is “suppressed permeabilization to YOPRO-1 in a dose-dependent fashion”. For the same molecule, in test [2], the “KN-62 needed to protect against Ivermectin-induced cell death” value was “More than 1 μM”; the “effect on Ivermectin-induced cell death” value was “effective at blocking Ivermectin-induced necrotic and apoptotic cell death”. The “long-term protection against Ivermectin” value in test [2] (24 h, 12 μM IVM) was “long-term protection against Ivermectin and ATP that extended up to 24 h”.
As for `COc1ccc(S(=O)(=O)N(CCO)c2ccccc2CN(C)C/C=C/c2ccc(Cl)cc2)cc1` [KN-93], the “block” value in test [1] is “most potent at blocking ATP- and Ivermectin-induced membrane permeabilization to YOPRO-1”. Besides, the “effect on Ivermectin-induced cell death” value in test [2] is recorded as “effectively blocked Ivermectin-induced cell death”.
